The values below come from patent US10174013B2, “Benzimidazole derivatives as kinase inhibitors” (SELVITA S.A., priority 2012, dated 2019).

One data set has as its system HEL92 cells. Description: Growth inhibition, MTS assay, HEL92. It is filed as cell-based, Human. As to conditions: MTS cell viability, read-out: HEL92 ED50. Background: Tetrazolium dyes change colour on reduction, which living cells bring about.
The next data set addresses Pim-2 (Homo sapiens (Human), UniProt Q9P1W9). Put plainly: ADP-Glo Kinase Assay, Pim-2. The following applies: 1 μM compound; for inhibition at 1 µM: read-out: Pim-2 % INH (1 μM). In kind it is biochemical. Summed up: (§1)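 Compounds were diluted in assay buffer to 1000 nM and incubated with kinase, substrate and ATP at apparent Km. Remaining ATP was depleted, ADP converted to ATP and detected by luciferase; percent inhibition came from normalized luminescence.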

Another data set concerns the target DYRK1 (Homo sapiens (Human), UniProt Q13627). Put plainly: ADP-Glo Kinase Assay, DYRK1. It is filed as biochemical. The following applies: 1 μM compound; for inhibition at 1 µM: read-out: DYRK1A % INH (1 μM). The procedure, abridged:
as §1
(In general: In ADP-Glo the light output rises with the ADP produced.)

For a further data set, the system named is HepG2 cells. Description: Growth inhibition, MTS assay, HepG2. In kind it is cell-based, Human. The following applies: MTS cell viability, read-out: HepG2 ED50.
For a further data set, the system named is MV4-11 cells. Description: Growth inhibition, MTS assay, MV4-11. In kind it is cell-based, Human. The following applies: MTS cell viability, read-out: MV4-11 ED50.
Another data set deals with Jeko-1 cells. Description: Growth inhibition, MTS assay, Jeko-1. In kind it is cell-based, Human. The following applies: 72 hours, MTS cell viability, read-out: Jeko-1 ED50. An excerpt:
The following cell lines, were obtained and used in tests as outlined below: • Human myelomonocytic, biphenotypic leukemia MV4-11 cells (harboring a Flt3-ITD mutation); • Human Acute Myeloid Leukemia MOLM16 cells; • Human Acute Myeloid Leukemia MOLM13 cells (harboring a Flt3-ITD mutation); • Human Myeloid Leukemia KG-1 cells; • Human erythroleukemia HEL92 cells; • Human mantle cell lymphoma Jeko-1 cells; • Human hepatocellular carcinoma HepG2 cells; and • Human colon adenocarcinoma SW-480 cells.
The assays were carried out according to the following protocol, which is described as an example for the MV4-11 cells:
Ten thousand MV4-11 cells were inoculated into each well of a 96-well microplate (manufactured by Corning Corp.) using Iscove's MDM medium (culture medium) containing 10% fetal calf serum (FCS). The same day, a dimethyl sulfoxide (DMSO) solution of each test compound prepared in a concentration of 10 mmol/L was further diluted with DMSO to the desired concentrations (0.1, 0.5, 1, 2.5, 5 and 10 micromol/L), and the diluted solution was added to each well. The individual wells were further cultured in 5% carbon dioxide at 37° C. for 72 hours. […] Briefly, 10 μl MTS (3-(4,5-Dimethyl-2-thiazolyl)-5-(carboxymethoxyphenyl)-2-(4-sulfophenyl)-2H-tetrazolium was added to each well, and culturing was performed in 5% carbon dioxide at 37° C. for 2 hours. After this incubation and using a microplate spectrophotometer (Synergy 2 multi-mode microplate reader (BioTek)), the absorbance of each well was measured at 490 nm. The value for cells not incubated with a test compound was designated as 100%. By comparing these values with the absorbance difference obtained at the well in which each test compound was added, the cell viability (% viability) after treatment with the test compound was calculated.

In the next data set the target is FLT3wt (Homo sapiens (Human), UniProt P36888). Put plainly: ADP-Glo Kinase Assay, Flt3 wt. In kind it is biochemical. The following applies: 1 μM compound; for inhibition at 1 µM: read-out: Flt3wt % INH (1 μM). Summed up: as §1
Chain of FLT3wt (P36888 27-993): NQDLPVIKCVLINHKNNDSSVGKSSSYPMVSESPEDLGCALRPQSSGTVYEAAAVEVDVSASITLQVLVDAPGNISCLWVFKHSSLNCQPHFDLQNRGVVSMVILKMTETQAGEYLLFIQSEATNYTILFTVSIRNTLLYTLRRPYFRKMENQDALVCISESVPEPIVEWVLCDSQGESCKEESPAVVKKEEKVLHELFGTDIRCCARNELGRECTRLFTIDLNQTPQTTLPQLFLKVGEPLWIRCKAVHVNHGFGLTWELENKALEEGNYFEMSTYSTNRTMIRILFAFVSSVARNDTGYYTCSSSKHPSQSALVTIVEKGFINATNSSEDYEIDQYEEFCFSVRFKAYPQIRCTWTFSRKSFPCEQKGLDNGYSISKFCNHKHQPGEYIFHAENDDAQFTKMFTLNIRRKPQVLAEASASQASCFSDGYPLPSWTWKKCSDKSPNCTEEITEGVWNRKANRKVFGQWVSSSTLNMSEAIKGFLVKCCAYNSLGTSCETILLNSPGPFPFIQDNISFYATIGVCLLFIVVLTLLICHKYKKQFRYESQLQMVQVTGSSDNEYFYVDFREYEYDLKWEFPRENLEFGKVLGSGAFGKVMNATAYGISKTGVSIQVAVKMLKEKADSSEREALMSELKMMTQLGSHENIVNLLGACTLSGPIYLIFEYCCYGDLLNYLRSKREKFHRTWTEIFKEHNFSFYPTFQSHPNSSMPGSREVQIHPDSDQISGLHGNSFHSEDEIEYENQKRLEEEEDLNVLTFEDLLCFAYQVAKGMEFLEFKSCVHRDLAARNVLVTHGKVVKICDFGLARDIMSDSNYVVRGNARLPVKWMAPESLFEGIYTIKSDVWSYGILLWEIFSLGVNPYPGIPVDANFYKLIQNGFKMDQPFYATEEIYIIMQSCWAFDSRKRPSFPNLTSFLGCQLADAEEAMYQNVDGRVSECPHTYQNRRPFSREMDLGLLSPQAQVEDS
A further data set deals with CDK2/E (Homo sapiens (Human), UniProt P24941). Description: ADP-Glo Kinase Assay, CDK2/E. It is filed as biochemical. As to conditions: 1 μM compound; for inhibition at 1 µM: read-out: CDK2/E % INH (1 μM). The procedure, abridged:
as §1

A further data set concerns SW-480 cells. Put plainly: Growth inhibition, MTS assay, SW-480. In kind it is cell-based, Human. The following applies: 72 hours, MTS cell viability, read-out: SW-480 ED50.
The target of a further data set is Pim-1 (Homo sapiens (Human), UniProt P11309). Put plainly: ADP-Glo Kinase Assay, Pim-1. In kind it is biochemical. As to conditions: 1 μM compound; for inhibition at 1 µM: read-out: Pim-1 % INH (1 μM). Summed up: as §1
Chain of Pim-1 (P11309 whole entry): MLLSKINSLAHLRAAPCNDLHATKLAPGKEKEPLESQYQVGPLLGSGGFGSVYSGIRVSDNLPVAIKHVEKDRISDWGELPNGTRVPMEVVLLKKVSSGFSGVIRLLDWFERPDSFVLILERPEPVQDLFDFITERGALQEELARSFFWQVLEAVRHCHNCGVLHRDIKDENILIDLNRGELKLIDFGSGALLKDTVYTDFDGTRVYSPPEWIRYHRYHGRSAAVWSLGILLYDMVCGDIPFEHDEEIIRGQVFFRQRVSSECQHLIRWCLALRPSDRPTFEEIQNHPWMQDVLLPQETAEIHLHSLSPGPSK
Another data set deals with Pim-3 (Homo sapiens (Human), UniProt Q86V86). Put plainly: ADP-Glo Kinase Assay, Pim-3. In kind it is biochemical. The following applies: 1 μM compound; for inhibition at 1 µM: read-out: Pim-3 % INH (1 μM). Summed up:
as §1

The target of the next data set is hERG potassium channel (Homo sapiens (Human), UniProt Q12809). Put plainly: hERG automated patch clamp assay (QPatch HT). How it is done: The hERG (human ether-A-go-go-related gene) channel corresponds to an important anti-target for potential new drugs since its inhibition may lead to sudden death. In order to establish whether the compounds of the present invention act on hERG, the following experiment was carried out.
Chain of hERG potassium channel (Q12809 whole entry): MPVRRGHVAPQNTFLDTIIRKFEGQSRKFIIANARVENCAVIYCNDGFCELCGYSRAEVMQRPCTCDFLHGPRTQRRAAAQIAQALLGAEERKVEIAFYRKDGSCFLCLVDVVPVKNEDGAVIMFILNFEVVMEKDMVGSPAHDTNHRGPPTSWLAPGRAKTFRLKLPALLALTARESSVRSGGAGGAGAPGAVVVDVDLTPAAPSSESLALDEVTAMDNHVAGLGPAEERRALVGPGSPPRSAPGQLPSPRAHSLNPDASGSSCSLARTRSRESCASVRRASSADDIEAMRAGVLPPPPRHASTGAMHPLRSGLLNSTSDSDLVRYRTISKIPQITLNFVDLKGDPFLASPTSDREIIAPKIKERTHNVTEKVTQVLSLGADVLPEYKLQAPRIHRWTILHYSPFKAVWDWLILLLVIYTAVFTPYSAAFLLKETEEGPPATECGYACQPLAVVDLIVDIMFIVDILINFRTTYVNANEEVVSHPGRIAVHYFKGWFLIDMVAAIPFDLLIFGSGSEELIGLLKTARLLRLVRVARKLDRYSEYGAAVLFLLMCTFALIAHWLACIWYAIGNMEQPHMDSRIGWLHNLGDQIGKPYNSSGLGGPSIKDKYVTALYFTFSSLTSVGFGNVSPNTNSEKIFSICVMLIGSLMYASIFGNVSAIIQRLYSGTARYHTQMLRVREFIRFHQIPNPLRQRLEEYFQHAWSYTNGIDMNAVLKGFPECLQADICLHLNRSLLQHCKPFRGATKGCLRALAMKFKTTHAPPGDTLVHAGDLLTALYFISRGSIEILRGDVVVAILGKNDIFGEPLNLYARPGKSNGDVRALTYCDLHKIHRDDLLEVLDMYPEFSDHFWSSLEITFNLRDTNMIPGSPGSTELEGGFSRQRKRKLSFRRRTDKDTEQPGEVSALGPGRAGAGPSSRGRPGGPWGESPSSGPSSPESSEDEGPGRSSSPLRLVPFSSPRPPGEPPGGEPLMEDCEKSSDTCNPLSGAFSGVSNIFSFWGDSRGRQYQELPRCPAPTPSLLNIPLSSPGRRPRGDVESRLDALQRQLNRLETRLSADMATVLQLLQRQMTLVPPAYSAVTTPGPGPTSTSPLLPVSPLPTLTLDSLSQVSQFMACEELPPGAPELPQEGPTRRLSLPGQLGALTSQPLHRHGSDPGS
The in vitro effects of the compounds indicated in Table 5 on the hERG potassium channel current (a surrogate for Iκr, the rapidly activating, delayed rectifier cardiac potassium current) expressed in mammalian cells were evaluated at room temperature using the QPatch HT® (Sophion Bioscience A/S, Denmark), an automatic parallel patch clamp system. Each compound indicated in Table 5 was evaluated at 0.1, 1, 3, 10 and 30 μM with each concentration tested in a minimum of two cells (n≥2). The duration of exposure to each compound concentration was 3 minutes.
In general terms: hERG is a cardiac potassium channel; its block is linked to QT prolongation.

The subject of a further data set is MV4-11 xenograft. Put plainly: MV4-11 xenograft in immunocompromised mice. In kind it is in vivo. As to conditions: MV4-11 xenograft, oral. The text has this: Several compounds of the present invention have been studied in a xenograft in mice, an in vivo tumor transplantation model used to investigate the factors involved in malignant transformation, invasion and metastasis, as well as to examine response to therapy. For the purpose of acceptance of donor leukemic cells (MV4-11 or MOLM16 cells), immunocompromised mice were used, namely particularly severely compromised immunodeficient mice (NOD/scid, SCID/beige). When tumors developed size of approx. 50-200 mm^3, the compounds as indicated below in Tables 3 and 3a were administered orally every day for 2-3 weeks, in once a day (QD) or twice a day (BID) schedule. During the course of the experiment, the mice were monitored and the following two parameters were measured: the tumor growth inhibition (TGI) factor as a measure of therapeutic efficacy and the body weight change (ΔBW) factor as a measure of possible compound toxicity. The results are depicted in Tables 3 and 3a.
Next, compound 26A was evaluated in a xenograft study of acute myeloid leukemia (MV-4-11), alone or in a combinational treatment with Cytarabine in vivo (Table 3b; FIG. 6). Compound 26A was tested in two doses (50 and 25 mg/kg) and administered twice a day (BID); Cytarabine was administered at dose of 50 mg/kg three times in a week (TIW). During 15 days of compound administration dose-dependent anti-cancer activity of compound 26A (administered alone) was shown. Tumor growth inhibition reached −82% and −77%, respectively.

Counter-ions that a name gives are not always drawn. Like-named read-outs stand apart in the source and are kept apart here.

Chain of Pim-2 (Q9P1W9 whole entry): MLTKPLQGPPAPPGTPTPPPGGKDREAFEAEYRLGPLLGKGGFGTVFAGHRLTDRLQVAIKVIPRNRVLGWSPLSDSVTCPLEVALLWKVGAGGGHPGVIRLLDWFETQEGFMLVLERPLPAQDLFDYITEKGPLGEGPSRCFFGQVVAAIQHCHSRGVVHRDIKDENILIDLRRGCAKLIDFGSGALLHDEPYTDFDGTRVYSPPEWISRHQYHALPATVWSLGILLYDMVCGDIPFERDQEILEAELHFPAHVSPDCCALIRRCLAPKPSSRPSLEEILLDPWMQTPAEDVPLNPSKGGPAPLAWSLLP

For the compound `CCn1c(N2CCNCC2C)nc2c([N+](=O)[O-])c(Br)c(Br)cc21` (stereo not shown) [Example 1AD], the IC50 worked out at 0.5 µM with HEL92 cells (Homo sapiens, 72 h); 0.6 µM with HepG2 cells (Homo sapiens, HepG2, 72 h); 0.5 µM in the data set on MV4-11 cells (Homo sapiens, MV4-11, 72 h); 0.4 µM with Jeko-1 cells (Homo sapiens, JeKo-1); 0.7 µM in the data set with SW-480 cells (Homo sapiens, SW480); 1.42 µM on hERG potassium channel. In addition, the inhibition at 1 µM at Pim-2 was 52%; at DYRK1, 72%; on FLT3wt, 18%; at CDK2/E, 26%; on Pim-1 it was more than 95%; at Pim-3 it was more than 95%.

As to `CCn1c(NCCN)nc2c([N+](=O)[O-])c(Br)c(Br)cc21` [Example 1AL], the IC50 in the data set on HEL92 cells (72 hours) worked out at 5.3 µM; in the data set with HepG2 cells (72 hours) it was 1.4 µM; in the data set on MV4-11 cells (72 hours), 2.2 µM; with Jeko-1 cells, 2.3 µM; in the data set on SW-480 cells it was 5.3 µM; at hERG potassium channel it was 2.42 µM. Further, the “Pim-2 % INH (1 μM)” value on Pim-2 is reported as 42%. The “DYRK1A % INH (1 μM)” value on DYRK1 was determined as 49%. Besides, at FLT3wt, the “Flt3wt % INH (1 μM)” value is given as less than 5%. For the same compound, the “CDK2/E % INH (1 μM)” value on CDK2/E is given as less than 5%. The “Pim-1 % INH (1 μM)” value on Pim-1 is on record as more than 95%. Further, the “Pim-3 % INH (1 μM)” value at Pim-3 is given as more than 95%.

For the compound `CCn1c(NCC2CCCN2)nc2c([N+](=O)[O-])c(Br)c(Br)cc21` (stereo not shown) [Example 1AM], the IC50 with HEL92 cells (Homo sapiens, 72 h) came to 8 µM; with HepG2 cells (Homo sapiens, HepG2, 72 h), 2.7 µM; with MV4-11 cells (Homo sapiens, MV4-11, 72 h), 2.6 µM; with Jeko-1 cells (Homo sapiens, JeKo-1), 2.8 µM; at hERG potassium channel (human, 3 min) it was 1.46 µM. The inhibition at 1 µM was less than 5% on FLT3wt, 12% on CDK2/E, 85% at Pim-1 and 53% at Pim-3.

On to `CC(C)n1c(N[C@@H]2CCCNC2)nc2c([N+](=O)[O-])c(Br)c(Br)cc21` [Example 1AS], for which the IC50 in the data set with HEL92 cells (72 hours) was 5.4 µM; with HepG2 cells (72 hours), 1.4 µM; in the data set on MV4-11 cells (72 hours), 0.6 µM; in the data set with Jeko-1 cells, 1.1 µM; against hERG potassium channel, 5.77 µM.

Turning to `CC(C)Cn1c(N2CCNCC2)nc2c([N+](=O)[O-])c(Br)c(Br)cc21` [Example 1N], the IC50 in the data set with HEL92 cells (Homo sapiens, 72 h) stood at 1.4 µM; in the data set with HepG2 cells (Homo sapiens, HepG2, 72 h), 1.7 µM; in the data set on MV4-11 cells (Homo sapiens, MV4-11, 72 h), 0.6 µM; with SW-480 cells (Homo sapiens, SW480), 1.2 µM; against hERG potassium channel (human, 3 min) it was 1.28 µM. The inhibition at 1 µM is 69% at Pim-2; more than 95% on DYRK1; 55% on FLT3wt; 39% at CDK2/E; more than 95% at Pim-1; more than 95% on Pim-3. In addition, the “TGI (tumor growth inhibition)” value in the data set with MV4-11 xenograft (150 mg/Kg QD) is 52%; in the data set with MV4-11 xenograft (doses as in Table 3), “up to 70%”. For the same compound, in the data set on MV4-11 xenograft (150 mg/Kg QD), the “ΔBW (body weight change)” value is reported as −6.5%.

Consider `CCCn1c(NCC(O)CN)nc2c([N+](=O)[O-])c(Br)c(Br)cc21` (stereo not shown) [Example 1X], for which the inhibition at 1 µM on Pim-2 is 36%; on DYRK1 it was 16%; on FLT3wt, less than 5%; on CDK2/E, 17%; on Pim-1 it was more than 95%; at Pim-3, more than 95%. Further, the IC50 in the data set on MV4-11 cells (Homo sapiens, MV4-11, 72 h) worked out at 1.2 µM; with Jeko-1 cells (Homo sapiens, JeKo-1) it was 4.3 µM; at hERG potassium channel, 20.4 µM.

For the compound `CC(C)Cn1c(NCC(O)CN)nc2c([N+](=O)[O-])c(Br)c(Br)cc21` (stereo not shown) [Example 1Y], the inhibition at 1 µM is 25% at Pim-2; less than 5% on FLT3wt; 6% on CDK2/E; more than 95% at Pim-1; 86% at Pim-3. Further, the IC50 was found to be 1.4 µM in the data set on MV4-11 cells (Homo sapiens, MV4-11, 72 h); 3.4 µM in the data set with Jeko-1 cells (Homo sapiens, JeKo-1); 16.9 µM against hERG potassium channel.

Consider `O=[N+]([O-])c1c(Br)c(Br)cc2c1nc(N1CCNCC1)n2CCN1CCNCC1` [Example 2C, 5,6-dibromo-4-nitro-2-(piperazin-1-yl)-1-[2-(piperazin-1-yl)ethyl]-1H-1,3-benzodiazole hydrochloride], for which the IC50 was found to be 7 µM in the data set on HepG2 cells (Homo sapiens, HepG2, 72 h); 2.8 µM in the data set on MV4-11 cells (Homo sapiens, MV4-11, 72 h); 6.2 µM in the data set on Jeko-1 cells (Homo sapiens, JeKo-1); 2.5 µM at hERG potassium channel.
